Format in all cases: cell-based
Assay [1] concerns K562 cells. The experiment in a line: Cell growth inhibitory activity assay (CellTiter-Glo), K562 cells. The note with it: Homo sapiens, 72 h, CTG cell viability. The method, boiled down:
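Growth inhibition of human K562 cells, sourced from Nanjing Kebai (CBP60529), was assessed with Promega's CellTiter-Glo kit, which measures viability through ATP quantification. Log-phase cells went into the inner wells of 96-well plates, with PBS in edge wells, incubated overnight at 37 °C and 5% CO2, then exposed to serially diluted compound for 72 h.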

Assay [2] addresses T1, Ba/F3 BCR-ABL1 T315I (Homo sapiens, UniProt P00519+P11274, T315I).
T1 construct: BCR (N-terminal fusion partner of the oncoprotein); expressed in transfected cells; host or cells: Ba/F3 (lentiviral transduction, monoclonal line)
Description: Cell growth inhibitory activity assay (CellTiter-Glo), Ba/F3 BCR-ABL1 T315I cells. The note with it: 72 h, CTG cell viability. The essentials: (§1)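 Ba/F3 parental cells or Ba/F3 lines lentivirally transduced with WT or mutant BCR-ABL1, seeded overnight then exposed to serially diluted compound 72 h at 37 °C, 5% CO2. Viability by CellTiter-Glo ATP luminescence with a T0 plate; 0.5% DMSO controls; IC50 from four-parameter nonlinear fit.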

The target in assay [3] is T2, Ba/F3 BCR-ABL1 WT (Homo sapiens, UniProt P00519+P11274).
T2 construct: BCR (N-terminal fusion partner of the oncoprotein); expressed in transfected cells; host or cells: Ba/F3 (lentiviral transduction, monoclonal line)
Description: Cell growth inhibitory activity assay (CellTiter-Glo), Ba/F3 BCR-ABL1 WT cells. The note with it: 72 h, CTG cell viability. The method, boiled down: as §1
A general note: ATP-based viability assays read luminescence as a measure of living cells.

Assay [4] concerns Ba/F3 parental cells. The experiment in a line: Cell growth inhibitory activity assay (CellTiter-Glo), Ba/F3 parental cells. To be noted: Mus musculus, BaF3, 72 h, CTG cell viability, read-out: IC50 Ba/F3 BCR-ABL1 Parental. The essentials: as §1

Some results are limits rather than exact numbers.

`C[C@@H]1COCc2nc3cc(C(=O)Nc4ccc(OC(F)(F)Cl)cc4)cc(-c4cnc5c(c4)-c4nn(-c6ncc(-c7ccccc7)cn6)cc4C5)c3n21` [T-80, (R)-N-(4-(chlorodifluoromethoxy)phenyl)-4-methyl-6-(2-(5-phenylpyrimidin-2-yl)-2,4-dihydropyrazolo[3',4':3,4]cyclopenta[1,2-b]pyridin-7-yl)-3,4-dihydro-1H-benzo[4,5]imidazo[2,1-c][1,4]oxazine-8-carboxamide]: the IC50 in assay [1] is at most 5 nM; in assay [2], at most 5 nM; in assay [3] it was at most 5 nM; in assay [4], over 1000 nM.

Take `C[C@@H]1COCc2nc3cc(C(=O)Nc4ccc(OC(F)(F)Cl)cc4)cc(-c4cnc5c(c4)-c4nn(-c6nccc(-c7ccccc7)n6)cc4C5)c3n21` [T-81, (R)-N-(4-(chlorodifluoromethoxy)phenyl)-4-methyl-6-(2-(4-phenyloyrimidin-2-yl)-2,4-dihydropyrazolo[3',4':3,4]cyclopenta[1,2-b]pyridin-7-yl)-3,4-dihydro-1H-benzo[4,5]imidazo[2,1-c][1,4]oxazine-8-carboxamide]: the IC50 in assay [1] was at most 5 nM; in assay [2] it was at most 5 nM; in assay [3] it was at most 5 nM; in assay [4] it was over 1000 nM.

Take `C[C@@H]1COCc2nc3cc(C(=O)Nc4ccc(OC(F)(F)Cl)cc4)cc(-c4cnc5c(c4)-c4c(cnn4-c4ncc6ccccc6n4)C5)c3n21` [T-82-A, (R)-N-(4-(chlorodifluoromethoxy)phenyl)-4-methyl-6-(1-(guinazolin-2-yl)-1,4-dihvdropyrazolo[3',4':3,4]cyclopenta[1,2-b]pyridin-7-yl)-3,4-dihydro-1H-benzo[4,5]imidazo[2,1-c][1,4]oxazine-8-carboxamide]: the IC50 is at most 5 nM in assay [1], 5 to 50 nM in assay [2], at most 5 nM in assay [3] and over 1000 nM in assay [4].

`C[C@@H]1COCc2nc3cc(C(=O)Nc4ccc(OC(F)(F)Cl)cc4)cc(-c4cnc5c(c4)-c4nn(-c6ncc7ccccc7n6)cc4C5)c3n21` [T-82-B, (R)-N-(4-(chlorodifluoromethoxy)phenyl)-4-methyl-6-(2-(quinazolin-2-yl)-2,4-dihydropyrazolo[3',4':3,4]cyclopenta[1,2-b]pyridin-7-yl)-3,4-dihydro-1H-benzo[4,5]imidazo[2,1-c][1,4]oxazine-8-carboxamide]: the IC50 is at most 5 nM in assay [1], at most 5 nM in assay [2], at most 5 nM in assay [3] and over 1000 nM in assay [4].

Consider `C[C@@H]1COCc2nc3cc(C(=O)Nc4ccc(OC(F)(F)Cl)cc4)cc(-c4cnc5c(c4)-c4nn(-c6ncc7ccsc7n6)cc4C5)c3n21` [T-83, (R)-N-(4-(chlorodifluoromethoxy)phenyl)-4-methyl-6-(2-(thieno[2,3-d]pyrimidin-2-yl)-2,4-dihydropyrazolo[3',4':3,4]cyclopenta[1,2-b]pyridin-7-yl)-3,4-dihydro-1H-benzo[4,5]imidazo[2,1-c][1,4]oxazine-8-carboxamide], for which the IC50 in assay [1] is at most 5 nM; in assay [2], at most 5 nM; in assay [3] it was at most 5 nM; in assay [4] it was over 1000 nM.

`C[C@@H]1COCc2nc3cc(C(=O)Nc4ccc(OC(F)(F)Cl)cc4)cc(-c4cnc5c(c4)-c4nn(-c6ncc7c(ccn7C)n6)cc4C5)c3n21` [T-84, (R)-N-(4-(chlorodifluoromethoxy)phenyl)-4-methyl-6-(2-(5-methyl-5H-pyrrolo[3,2-d]pyrimidin-2-yl)-2,4-dihydropyrazolo[3',4':3,4]cyclopenta[1,2-b]pyridin-7-yl)-3,4-dihydro-1H-benzo[4,5]imidazo[2,1-c][1,4]oxazine-8-carboxamide]: the IC50 is at most 5 nM in assay [1], at most 5 nM in assay [2], at most 5 nM in assay [3] and over 1000 nM in assay [4].

Source of the values: patent EP4768484A1, “HETEROCYCLIC FUSED RING COMPOUND, AND COMPOSITION AND USE THEREOF” (Shenzhen TargetRx, Inc., priority 2023, dated 2025).
